Measured values from article PMC2653091 (Journal of medicinal chemistry, 2009).
Where two headings read alike, the source gives them in different places. Blank lines part the entries; values can stand above or below the molecule they belong to. Where no end group is shown, it is not given here.

Assays:
[1] = biological target: T1, mouse NPSR (Mus musculus, UniProt Q8BZP8); experiment: Calcium mobilization in HEK293mNPSR cells, agonist mode; format: cell-based
T1 sequence (Q8BZP8 1-371): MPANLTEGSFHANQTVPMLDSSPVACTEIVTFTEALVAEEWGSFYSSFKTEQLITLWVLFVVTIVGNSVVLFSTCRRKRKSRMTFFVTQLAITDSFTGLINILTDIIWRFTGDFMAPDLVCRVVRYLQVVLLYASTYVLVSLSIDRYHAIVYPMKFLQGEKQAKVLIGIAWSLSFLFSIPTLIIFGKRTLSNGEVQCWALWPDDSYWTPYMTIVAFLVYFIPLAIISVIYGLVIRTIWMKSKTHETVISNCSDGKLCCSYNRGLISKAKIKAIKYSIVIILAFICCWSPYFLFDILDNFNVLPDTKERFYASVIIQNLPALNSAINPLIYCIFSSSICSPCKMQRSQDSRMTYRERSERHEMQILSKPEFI

[2] = test system: NPSR; conditions: cited from earlier work
[3] = test system: mouse vertical activity; conditions: at doses able to counteract the stimulatory effect of exogenously applied NPS; cited from earlier work

Agonist effect at 10 μM (crc incomplete) ([1]; 10 μM, % over the baseline, HEK293mNPSR): 30%
Molecule: [Trp^5]NPS (SFRNWVGTGMKKTSFQRAKS; Neuropeptide S; UniProt P0C0P6 70-89, looked up, variant G5W) [Compound 2]

Molecule: [Ala^3]NPS
Pharmacological profile at NPSR ([2]; ref 17): partial agonist

Molecule: [Ala^5]NPS (SFRNAVGTGMKKTSFQRAKS; Neuropeptide S; UniProt P0C0P6 70-89, looked up, variant G5A)
Pharmacological profile at NPSR ([2]; ref 6, 15): high potency NPSR full agonist
Pharmacological profile at NPSR ([2]; ref 15): full agonist

Molecule: [D-Ala^5]NPS
Pharmacological profile at NPSR ([2]; ref 15): partial agonist

Molecule: O=C(NCc1ccc(F)cc1)N1CCN2C(=O)OC(c3ccccc3)(c3ccccc3)C2C1 (stereo not drawn) [SHA 68, 3-Oxo-1,1-diphenyl-tetrahydro-oxazolo[3,4-a]pyrazine-7-carboxylic acid 4-fluoro-benzylamide]
Pharmacological profile at NPSR ([2]; ref 18): pure antagonist
Effect per se on mouse vertical activity [3]: selective reduction of mouse vertical activity

Molecule: [Aib^5]NPS
Pharmacological profile at NPSR ([2]; ref 15): partial agonists

Emax ([1]; read-out: Agonist Emax ± sem, SEM): 295 ± 22%
Molecule: SFRNGVGTGMKKTSFQRAKS [NPS, Neuropeptide S]
